Tested on: T1, Kras G12D protein / SOS1 exchange domain
T1 construct: Cytoskeleton, Inc. (SOS1 exchange domain only) GE02
Experiment: Kras-SOS exchange assay (MANT-GDP)
Format: biochemical
Conditions: for Relative fluorescence intensity: PhP072 500 uM, no irradiation
Procedure: MANT-GDP loading assay: Kras^G12D protein was first buffer exchanged into low magnesium buffer (20 mM HEPES-NaOH (pH 7.5), 50 mM NaCl, 0.5 mM MgCl2) using a NAP5 column (catalog no.: 17-0583-1, Cytiva). The proteins were then incubated with 20-fold molar excess of N-methylanthraniloyl (MANT)-GDP (catalog no.: 69244, Sigma-Aldrich) in loading buffer (50 mM NaCl, 20 mM HEPES-NaOH [pH 7.5], 0.5 mM MgCl2, 10 mM EDTA, and 1 mM Dithiothreitol (DTT)) in a total volume of 200 μL at 20 °C for 90 min. The reaction was stopped by adding MgCl2 to a final concentration of 10 mM, then incubated at 20 °C for 30 min. The unbound MANT-GDP was removed using the NAP-5 column equilibrated with nucleotide exchange buffer (40 mM HEPES-NaOH (pH 7.5), 50 mM NaCl, 10 mM MgCl2, 2 mM DTT).
MANT-GDP exchange assay: First the MANT-GDP bound Kras G12D protein (in a final 1 μM molar concentration) was preincubated with the inhibitor molecules for 60 min. After the preincubation the samples were exposed to UV light for 10 min with a wavelength of 366 nm. The UV-treated MANT-GDP Kras-inhibitor mix was loaded into a black 384 well microplate. The nucleotide exchange reaction was initiated by adding 100 fold molar excess of GppNHp (catalog no.: G0635, Sigma-Aldrich), a non-hydrolyzable GTP analog and the SOS1 exchange domain (catalog no.: GE02, Cytoskeleton, Inc.) protein in 0.5 μM final concentration. The change in fluorescence intensity was measured every 30 s in room temperature for 60 min on an EnSpire plate reader (PerkinElmer, Inc.). The measured fluorescence values were fitted to a single exponential function by using GraphPad Prism 8 software.

Question: With `Cc1ncc(CO)c(CNC(=O)CCC2(C)N=N2)c1O` [PhP072, Cc1ncc(CO)c(c1O)CNC(=O)CCC2(C)N=N2] as the molecule, how does the Relative fluorescence intensity (0 sec) read?
Answer: The Relative fluorescence intensity was 1.

Question: What about the Relative fluorescence intensity (30 sec) of the same molecule?
Answer: The Relative fluorescence intensity was 1.013.

Question: And the Relative fluorescence intensity (60 sec)?
Answer: The Relative fluorescence intensity was 0.9959.

Question: And the Relative fluorescence intensity (90 sec)?
Answer: The Relative fluorescence intensity was 0.9972.

Question: What about the Relative fluorescence intensity (120 sec) of the same molecule?
Answer: The Relative fluorescence intensity was 0.9718.

Question: What about the Relative fluorescence intensity (210 sec) of the same molecule?
Answer: Its Relative fluorescence intensity is 0.9336.

Question: And the Relative fluorescence intensity (240 sec)?
Answer: Its Relative fluorescence intensity is 0.9413.

Question: And the Relative fluorescence intensity (270 sec)?
Answer: The Relative fluorescence intensity was 0.9207.

Question: What about the Relative fluorescence intensity (300 sec) of the same molecule?
Answer: Its Relative fluorescence intensity is 0.9231.

Question: And the Relative fluorescence intensity (330 sec)?
Answer: The Relative fluorescence intensity was 0.889.

Question: What about the Relative fluorescence intensity (360 sec) of the same molecule?
Answer: Its Relative fluorescence intensity is 0.9144.

Question: And the Relative fluorescence intensity (390 sec)?
Answer: Its Relative fluorescence intensity is 0.8755.

Question: What about the Relative fluorescence intensity (420 sec) of the same molecule?
Answer: Its Relative fluorescence intensity is 0.8829.

Question: What about the Relative fluorescence intensity (450 sec) of the same molecule?
Answer: The Relative fluorescence intensity was 0.8817.

Question: And the Relative fluorescence intensity (480 sec)?
Answer: Its Relative fluorescence intensity is 0.8573.

Question: What about the Relative fluorescence intensity (510 sec) of the same molecule?
Answer: Its Relative fluorescence intensity is 0.8562.

Question: What about the Relative fluorescence intensity (540 sec) of the same molecule?
Answer: The Relative fluorescence intensity was 0.8393.

Question: What about the Relative fluorescence intensity (570 sec) of the same molecule?
Answer: The Relative fluorescence intensity was 0.8479.

Question: And the Relative fluorescence intensity (600 sec)?
Answer: The Relative fluorescence intensity was 0.8268.

Question: What about the Relative fluorescence intensity (630 sec) of the same molecule?
Answer: Its Relative fluorescence intensity is 0.8298.

Question: What about the Relative fluorescence intensity (660 sec) of the same molecule?
Answer: The Relative fluorescence intensity was 0.82.

Question: What about the Relative fluorescence intensity (690 sec) of the same molecule?
Answer: The Relative fluorescence intensity was 0.8367.

Question: What about the Relative fluorescence intensity (720 sec) of the same molecule?
Answer: Its Relative fluorescence intensity is 0.8123.

Question: What about the Relative fluorescence intensity (750 sec) of the same molecule?
Answer: The Relative fluorescence intensity was 0.8188.

Question: What about the Relative fluorescence intensity (780 sec) of the same molecule?
Answer: Its Relative fluorescence intensity is 0.7895.

Question: What about the Relative fluorescence intensity (810 sec) of the same molecule?
Answer: Its Relative fluorescence intensity is 0.8173.

Question: What about the Relative fluorescence intensity (840 sec) of the same molecule?
Answer: Its Relative fluorescence intensity is 0.8044.

Question: And the Relative fluorescence intensity (870 sec)?
Answer: Its Relative fluorescence intensity is 0.8078.

Question: What about the Relative fluorescence intensity (900 sec) of the same molecule?
Answer: The Relative fluorescence intensity was 0.796.

Question: What about the Relative fluorescence intensity (930 sec) of the same molecule?
Answer: Its Relative fluorescence intensity is 0.7898.

Question: What about the Relative fluorescence intensity (960 sec) of the same molecule?
Answer: Its Relative fluorescence intensity is 0.7738.

Question: What about the Relative fluorescence intensity (990 sec) of the same molecule?
Answer: Its Relative fluorescence intensity is 0.7911.

Question: And the Relative fluorescence intensity (1020 sec)?
Answer: The Relative fluorescence intensity was 0.7808.

Question: What about the Relative fluorescence intensity (1050 sec) of the same molecule?
Answer: The Relative fluorescence intensity was 0.7917.

Question: And the Relative fluorescence intensity (1080 sec)?
Answer: The Relative fluorescence intensity was 0.7685.

Question: What about the Relative fluorescence intensity (1110 sec) of the same molecule?
Answer: Its Relative fluorescence intensity is 0.7829.

Question: What about the Relative fluorescence intensity (1140 sec) of the same molecule?
Answer: The Relative fluorescence intensity was 0.763.

Question: What about the Relative fluorescence intensity (1170 sec) of the same molecule?
Answer: Its Relative fluorescence intensity is 0.7869.

Question: And the Relative fluorescence intensity (1200 sec)?
Answer: Its Relative fluorescence intensity is 0.7802.

Question: And the Relative fluorescence intensity (1230 sec)?
Answer: Its Relative fluorescence intensity is 0.7626.

Question: And the Relative fluorescence intensity (1260 sec)?
Answer: The Relative fluorescence intensity was 0.7487.

Question: And the Relative fluorescence intensity (1290 sec)?
Answer: Its Relative fluorescence intensity is 0.7649.

Question: And the Relative fluorescence intensity (1320 sec)?
Answer: Its Relative fluorescence intensity is 0.7515.

Question: What about the Relative fluorescence intensity (1350 sec) of the same molecule?
Answer: The Relative fluorescence intensity was 0.7769.

Question: What about the Relative fluorescence intensity (1380 sec) of the same molecule?
Answer: Its Relative fluorescence intensity is 0.7498.

Question: And the Relative fluorescence intensity (1410 sec)?
Answer: The Relative fluorescence intensity was 0.7689.

Question: And the Relative fluorescence intensity (1440 sec)?
Answer: Its Relative fluorescence intensity is 0.7375.

Question: And the Relative fluorescence intensity (1470 sec)?
Answer: The Relative fluorescence intensity was 0.7324.

Question: And the Relative fluorescence intensity (1500 sec)?
Answer: Its Relative fluorescence intensity is 0.7377.

Question: What about the Relative fluorescence intensity (1530 sec) of the same molecule?
Answer: Its Relative fluorescence intensity is 0.7512.

Question: And the Relative fluorescence intensity (1560 sec)?
Answer: Its Relative fluorescence intensity is 0.7561.

Question: And the Relative fluorescence intensity (1590 sec)?
Answer: Its Relative fluorescence intensity is 0.7642.

Question: What about the Relative fluorescence intensity (1620 sec) of the same molecule?
Answer: Its Relative fluorescence intensity is 0.7532.

Question: What about the Relative fluorescence intensity (1650 sec) of the same molecule?
Answer: Its Relative fluorescence intensity is 0.7322.

Question: And the Relative fluorescence intensity (1680 sec)?
Answer: The Relative fluorescence intensity was 0.7337.

Question: And the Relative fluorescence intensity (1710 sec)?
Answer: The Relative fluorescence intensity was 0.7447.

Question: And the Relative fluorescence intensity (1740 sec)?
Answer: Its Relative fluorescence intensity is 0.7262.

Question: And the Relative fluorescence intensity (1770 sec)?
Answer: The Relative fluorescence intensity was 0.7004.

Question: What about the Relative fluorescence intensity (1800 sec) of the same molecule?
Answer: The Relative fluorescence intensity was 0.7223.

Question: And the Relative fluorescence intensity (1830 sec)?
Answer: Its Relative fluorescence intensity is 0.7275.

Question: And the Relative fluorescence intensity (1860 sec)?
Answer: The Relative fluorescence intensity was 0.7142.

Question: What about the Relative fluorescence intensity (1890 sec) of the same molecule?
Answer: The Relative fluorescence intensity was 0.7142.

Question: And the Relative fluorescence intensity (1920 sec)?
Answer: Its Relative fluorescence intensity is 0.7251.

Question: And the Relative fluorescence intensity (1950 sec)?
Answer: Its Relative fluorescence intensity is 0.7143.

Question: What about the Relative fluorescence intensity (1980 sec) of the same molecule?
Answer: Its Relative fluorescence intensity is 0.7167.

Question: And the Relative fluorescence intensity (2010 sec)?
Answer: Its Relative fluorescence intensity is 0.7199.

Question: What about the Relative fluorescence intensity (2040 sec) of the same molecule?
Answer: The Relative fluorescence intensity was 0.7182.

Question: And the Relative fluorescence intensity (2070 sec)?
Answer: Its Relative fluorescence intensity is 0.7197.

Question: What about the Relative fluorescence intensity (2100 sec) of the same molecule?
Answer: Its Relative fluorescence intensity is 0.7234.

Question: What about the Relative fluorescence intensity (2130 sec) of the same molecule?
Answer: Its Relative fluorescence intensity is 0.7107.

Question: And the Relative fluorescence intensity (2160 sec)?
Answer: Its Relative fluorescence intensity is 0.709.

Question: What about the Relative fluorescence intensity (2190 sec) of the same molecule?
Answer: Its Relative fluorescence intensity is 0.6857.

Question: And the Relative fluorescence intensity (2220 sec)?
Answer: The Relative fluorescence intensity was 0.7212.

Question: What about the Relative fluorescence intensity (2250 sec) of the same molecule?
Answer: The Relative fluorescence intensity was 0.7309.

Question: And the Relative fluorescence intensity (2280 sec)?
Answer: The Relative fluorescence intensity was 0.698.

Question: And the Relative fluorescence intensity (2310 sec)?
Answer: The Relative fluorescence intensity was 0.6941.

Question: And the Relative fluorescence intensity (2340 sec)?
Answer: Its Relative fluorescence intensity is 0.715.

Question: What about the Relative fluorescence intensity (2370 sec) of the same molecule?
Answer: Its Relative fluorescence intensity is 0.7148.

Question: And the Relative fluorescence intensity (2400 sec)?
Answer: Its Relative fluorescence intensity is 0.6907.

Question: And the Relative fluorescence intensity (2430 sec)?
Answer: The Relative fluorescence intensity was 0.6865.

Question: What about the Relative fluorescence intensity (2460 sec) of the same molecule?
Answer: Its Relative fluorescence intensity is 0.6802.

Question: What about the Relative fluorescence intensity (2490 sec) of the same molecule?
Answer: Its Relative fluorescence intensity is 0.7113.

Question: And the Relative fluorescence intensity (2520 sec)?
Answer: Its Relative fluorescence intensity is 0.7022.

Question: And the Relative fluorescence intensity (2550 sec)?
Answer: The Relative fluorescence intensity was 0.6719.

Question: What about the Relative fluorescence intensity (2580 sec) of the same molecule?
Answer: The Relative fluorescence intensity was 0.6958.

Question: What about the Relative fluorescence intensity (2910 sec) of the same molecule?
Answer: Its Relative fluorescence intensity is 0.6843.

Question: What about the Relative fluorescence intensity (2940 sec) of the same molecule?
Answer: The Relative fluorescence intensity was 0.6708.

Question: What about the Relative fluorescence intensity (2970 sec) of the same molecule?
Answer: Its Relative fluorescence intensity is 0.6872.

Question: And the Relative fluorescence intensity (3000 sec)?
Answer: Its Relative fluorescence intensity is 0.6826.

Question: What about the Relative fluorescence intensity (3030 sec) of the same molecule?
Answer: The Relative fluorescence intensity was 0.6877.

Question: And the Relative fluorescence intensity (3060 sec)?
Answer: Its Relative fluorescence intensity is 0.6798.

Question: And the Relative fluorescence intensity (3090 sec)?
Answer: The Relative fluorescence intensity was 0.6889.

Question: What about the Relative fluorescence intensity (3120 sec) of the same molecule?
Answer: Its Relative fluorescence intensity is 0.6845.

Question: And the Relative fluorescence intensity (3150 sec)?
Answer: Its Relative fluorescence intensity is 0.6654.

Question: And the Relative fluorescence intensity (3180 sec)?
Answer: Its Relative fluorescence intensity is 0.6759.

Question: What about the Relative fluorescence intensity (3210 sec) of the same molecule?
Answer: Its Relative fluorescence intensity is 0.6861.

Question: What about the Relative fluorescence intensity (3240 sec) of the same molecule?
Answer: Its Relative fluorescence intensity is 0.6538.

Question: And the Relative fluorescence intensity (3270 sec)?
Answer: Its Relative fluorescence intensity is 0.6954.

Question: And the Relative fluorescence intensity (3300 sec)?
Answer: The Relative fluorescence intensity was 0.6785.

Question: What about the Relative fluorescence intensity (3330 sec) of the same molecule?
Answer: The Relative fluorescence intensity was 0.6776.

Question: What about the “normalized signal, Kras-SOS exchange (Figure 4c PhP072 irradiation)” value (Php072 500 uM, irradiation, time 0 sec) of the same molecule?
Answer: Its value is 1.

Source: publication PMC11292009, “Mapping protein binding sites by photoreactive fragment pharmacophores” (Communications Chemistry, 2024)
